According to PubChem BioAssay (NCI):
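Cultured in 96-well plates, cells were exposed to test compound for 48 hours across five concentrations. TGI marks complete inhibition of growth.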

Tests used:
Assay in all cases: NCI tumour cell line growth inhibition, 48 h
HOP-92 NSCLC = system: HOP-92 NSCLC
RPMI-8226 leukemia = system: RPMI-8226 leukemia
SK-OV-3 ovarian = system: SK-OV-3 ovarian
CCRF-CEM leukemia = system: CCRF-CEM leukemia
HCT-116 colon = system: HCT-116 colon
U251 CNS = system: U251 CNS
SF-539 CNS = system: SF-539 CNS
MOLT-4 leukemia = system: MOLT-4 leukemia
OVCAR-3 ovarian = system: OVCAR-3 ovarian
BT-549 breast = system: BT-549 breast
DU-145 prostate = system: DU-145 prostate

Row | Compound | TGI (HOP-92 NSCLC) [µM] | TGI (RPMI-8226 leukemia) [µM] | TGI (SK-OV-3 ovarian) [µM] | TGI (CCRF-CEM leukemia) [µM] | TGI (HCT-116 colon) [µM] | TGI (U251 CNS) [µM] | TGI (SF-539 CNS) [µM] | TGI (MOLT-4 leukemia) [µM] | TGI (OVCAR-3 ovarian) [µM] | TGI (BT-549 breast) [µM] | TGI (DU-145 prostate) [µM]
1 | COc1ccc(NC2Oc3cc4c(cc3C(c3cc(OC)c(OC)c(OC)c3)C2C)OCO4)cc1 (configuration not stated) | 33.7 | > 83 | > 100 | > 100 | 19.1 | 11.6 | 0.492 | > 100 | > 100 | > 87.9 | > 91.4
2 | CN(O)C(=O)Cc1ccc(OCc2cccc(Cl)c2)cc1 | > 100 | > 100 | > 100 | > 100 | > 100 | > 100 | > 100 | > 100 | > 100 | > 100 | > 100
3 | CCOP(=O)(OCC)/C(F)=C/c1ccccc1 | > 100 | > 100 | > 100 | > 100 | > 100 | > 100 | > 100 | > 100 | > 100 | > 100 | > 100
4 | CC(C)/C(Cl)=N\OC(=O)NNc1ccccc1 | 35.3 | 1.34 | > 100 | > 46.7 | > 100 | > 100 | > 100 | 17.7 | > 100 | > 100 | > 100
5 | O=C(O)c1ccc(NS(=O)(=O)Cc2ccccc2)cc1 | > 100 | > 100 | > 100 | > 100 | > 100 | > 100 | > 100 | > 100 | > 100 | > 100 | > 100
6 | Cc1oc2nc(N(C)C)n3nnnc3c2c1C | > 100 | > 100 | > 100 | > 100 | > 100 | > 100 | > 100 | > 100 |  | > 100 | > 100
7 | CCN(CC)CCCn1c(=O)c2cccnc2n2c3c(=O)n(C)c(=O)n(C)c3nc12 | > 100 | > 100 | > 100 | > 100 | > 100 | > 100 | > 100 | > 100 | > 100 | > 100 | > 100
8 | CC1=CC(=O)N(n2c(C)n[nH]c2=O)C1=O | > 100 | > 100 | > 100 | > 100 | > 100 | > 100 | > 100 | > 100 | > 100 | > 100 | > 100
9 | c1ccc2c(c1)CCCN1CCc3ccccc3C21 (configuration not stated) | > 100 | > 100 | > 100 | > 100 | > 100 | > 100 | 46.5 | > 100 | > 100 | > 100 | > 100
10 | COc1ccc2c(c1)C(=O)c1ccccc1C2 | > 100 | > 100 | > 100 | > 100 | > 100 | > 100 | > 100 | > 100 | > 100 | > 100 | 35
11 | CCOC(=O)C1CC(O)C(=O)N1C (configuration not stated) | > 100 | > 100 | > 100 | > 100 | > 100 | > 100 | > 100 | > 100 | > 100 | > 100 | > 100
12 | N#Cc1c2c(c(Nc3ccc(F)cc3)n3c1nc1ccccc13)CCC2 | 20.5 | > 21.3 | 26.8 | 4.52 | 3.45 | 8.01 | 9.56 | > 100 | 18.5 | 17.8 | 13.9
13 | COc1cc2c(cc1OC)C(=O)/C(=C/c1cc(C)c(O)c(C)c1)C2 | > 100 | > 100 | > 100 | > 100 |  | > 100 | > 100 | > 100 | > 100 | > 100 | > 100
14 | COc1cccc(-c2nc(-c3cnccn3)n(Cc3ccccc3)n2)c1 | 81.1 | > 100 | > 100 | > 100 | > 100 | > 100 | > 100 | > 100 | > 100 | > 100 | > 100
15 | C=CC/C(C(=O)OC)=C(/C(=O)OC)N(CCC)CCC | > 100 | > 100 | > 100 | > 100 | > 100 | > 100 | > 100 | > 100 | > 100 | > 100 | > 100
16 | CCC[C@H](C)[C@H]1NC(=O)[C@@H](NC(=O)[C@@H](CC(C)C)N(C)C(=O)C2CCCN2C(=O)[C@H](C)O)[C@@H](C)OC(=O)[C@H](CC(C)C)N(C)C(=O)[C@@H]2CCCN2C(=O)[C@H](CC(C)C)NC(=O)[C@@H](C)C(=O)[C@H](C(C)C)OC(=O)C[C@@H]1O (some centres not stated) | 0.0093 | 0.0768 | 0.14 | 0.141 | 0.00356 | < 0.0025 | 0.0102 | 1.58 | 0.0117 | 0.025 | 0.0143
17 | O=C1C(C=NCCc2c[nH]c3ccccc23)C(C(F)(F)F)=NN1c1nc2ccccc2s1 (configuration not stated) | 48.5 | 62.5 | 76.2 | 57.8 | > 100 | > 100 | 86.4 | 60.4 | 50.1 | 66.3 | 79.5
18 | C[C@]12CC/C(=N\O)C=C1CC[C@@H]1[C@@H]2CC[C@]2(C)C(=N/O)/C(=C/c3cccnc3)C[C@@H]12 | 63.5 | 8.95 | > 100 | > 100 | > 100 | 94.9 | 82.8 | 4 |  | 54.3 | > 100
19 | Cc1cc(O)cc(O)c1N=Nc1ccc([N+](=O)[O-])cc1 | 8.17 | 39.8 | > 100 | > 100 | 15.4 | 53.9 | 49.9 | 17.3 | > 100 | 54.1 | 79.1
20 | O=C1N[C@@H]2c3c(csc3Br)C(=O)[C@@H]2O1 | 59.3 | 85.1 | > 100 | 40.1 | > 100 | 69.2 | > 100 | 52.4 | 47.8 | > 100 | > 100
21 | O=c1nc2c(c(-c3cccc(Cl)c3)[nH]1)COC/C2=C\c1cccc(Cl)c1 | > 100 | > 100 | > 100 | > 100 | > 100 | > 100 | > 100 | > 100 | > 100 | > 100 | > 100
22 | O=C1/C(=C/c2ccc([N+](=O)[O-])cc2)CNC/C1=C\c1ccc([N+](=O)[O-])cc1 | 59 | 2.75 | > 100 | 2.97 | 1.97 | 1.67 | 5.59 | > 38 | 9.61 | 7.73 | 35.6
23 | CCOC(=O)C1C(=O)CC(O)(c2ccccc2)C(C(=O)OCC)C1c1ccc(OC)cc1 (configuration not stated) | > 82 | 40.6 | 89.9 | 79.2 | > 47 | > 76.8 | 40.9 | > 82 | 42.8 | > 100 | > 100
24 | O=C1C(Br)=Cc2c(Cl)sc(Cl)c21 | 7 | 2.98 | 35.8 | > 100 | 6.25 | 7.53 | 15.1 | 2.08 | 12.1 | 88.4 | 18
25 | Cc1cccc(N(CCC#N)S(=O)(=O)c2ccccc2)c1 | > 100 | > 100 | > 100 | > 100 | > 100 | > 100 | > 100 | > 100 | > 100 | > 100 | > 100
